The results in this text go back to patent US20100311170A1, “METHOD FOR REPROGRAMMING DIFFERENTIATED CELLS” (priority 2008, published 2010).

Type in all cases: cell-based, mouse
For series [1], the system named is ES-neo×NS-Oct4-puro cells. Description: PEG fusion of ES-neo cells with NS-Oct4-puro cells, hybrids treated after fusion; AP-positive puromycin-resistant reprogrammed colonies counted. The conditions noted are these: for reprogrammed clones with respect to the control (fold): 24 h culture after fusion, Wnt3a 100 ng/ml or BIO 1 μM; for number of reprogrammed clones after prolonged treatment: 48 h of treatment after fusion. As for the experimental part: (§1) ES×NS and ES×MEF PEG fusions: 1.2×10^6 NS cells or MEFs were plated into T25 flasks. After 2 h, 1.2×10^6 ES cells were plated onto them, allowing them to attach to the NS cells or MEFs.

Series [2] has as its system ES-neo×MEF-hygro. In words: PEG fusion of ES-neo cells with MEF-hygro cells, hybrids treated after fusion; reprogrammed AP-positive clones counted. As for the experimental part:
as §1

The subject of series [3] is ES-hygro×thymocyte-neo cells. In words: ES×thymocyte fusion, hybrids cultured in BIO; reprogrammed clones counted. The protocol:
ES×thymocyte fusions: the cells were fused in suspensions as previously described (Silva et al., 2006). After fusion, they were packed by centrifugation and the supernatant was discarded. The pelleted cells were resuspended in complete ES-cell medium and plated. The selection was carried out after 24 h, using hygromycin plus neomycin.

The test system of series [4] is ES cells fused with NS-Oct4-puro cells. Description: Pretreated-ES×NS PEG fusions (ES cells pre-cultured with Wnt3a or BIO, then fused with non-treated NS-Oct4-puro cells). To be noted: for enhancement of NS reprogramming: ES cells cultured for 12, 48 and 72 h; for total reprogrammed clones / increase in the numbers of reprogrammed clones: ES cells pre-cultured for 24 h and 96 h; for increase in the numbers of reprogrammed clones: Wnt3a 100 ng/ml or BIO 1 μM. As for the experimental part:
On the last day, the cells were trypsinized, counted, and plated on NS cells for fusions or harvested for RNA and protein analyses. PEG fusions and drug selection were performed as previously described.

The subject of series [5] is NS-Oct4-puro cells. In words: BIO-pretreated NS-Oct4-puro cells fused with non-treated ES-neo cells. The conditions noted are these: NS cells pretreated with BIO before fusion. The protocol: FIG. 12. […] (A) Plates containing fused hybrid colonies between BIO-treated NS-Oct4-puro cells and non-treated ES-neo cells. The clones were stained for the expression of AP and counted. The fold-change increases in the reprogrammed colonies are shown in the graph (mean±s.e.m.; n=3). (B) Example of a reprogrammed colony isolated from ES-neo cells fused with NS-Oct4-puro cells pretreated with BIO for 24 h. (C) Western blotting of total protein extracts of the NS-Oct4-puro cells at the indicated treatment times.
ES×NS and ES×MEF PEG fusions: 1.2×10^6 NS cells or MEFs were plated into T25 flasks. After 2 h, 1.2×10^6 ES cells were plated onto them, allowing them to attach to the NS cells or MEFs. After a further 2 h, 1 ml 50% (w/v) PEG 1450 (Sigma; pre-warmed to 37° C.) was added for 2 min, and then the cells were washed three times with serum-free DMEM. […] After 12 h, the cells were trypsinized and plated into gelatin+laminin-treated p100 dishes. For the ES×NS selection, puromycin was added after 72 h, while for the ES×MEF selection, hygromycin plus neomycin were added after 24 h.

Series [6] has as its system ES-neo cells and ES×NS reprogrammed hybrids. Description: Clonogenicity and viability of ES cells and hybrids plated in BIO-containing medium. To be noted: scaled numbers plated. The protocol: FIG. 4. […] ES-neo cells (A) and ES×NS reprogrammed hybrids (B) (treated or not for 24 h with BIO) were plated at different densities. After 10 days, the plates were stained for AP and counted. The fold-changes in colonies are shown in the graphs (mean±s.e.m.; n=3).

Series [7] has as its system Topflash reporter gene (β-catenin binding sites fused to luciferase). In words: Topflash luciferase reporter assay in ES cells. To be noted: 24 h. The protocol: ES cells were co-transfected by nucleofection (Amaxa) with the Topflash reporter construct driving firefly luciferase cDNA and a pRL-CMV driving constitutive expression of renilla cDNA for normalization. Treatments with Wnt3a and BIO were carried out the day after the nucleofection and cells were lysed with 1× passive reporter lysis buffer. Firefly and renilla reporter activities were measured using a 96-well-based luminometer and were detected as per manufacturer instructions (Promega Dual-Light system),

The subject of series [8] is ES-neo cells with ES-Hygro cells. Description: PEG fusion of BIO-pretreated ES-neo cells with ES-Hygro cells (fusion control). The protocol: FIG. 6. […] Plates containing fused hybrid colonies between ES-neo cells (treated or not for 24 h with BIO) and non-treated ES-hygro cells. The clones were stained for the expression of AP and counted. The fold-change of colonies are shown in the graphs (mean±s.e.m.; n=3). (B) Quantification (as fold-increases in the number of colonies) of hybrid colonies from PEG fusions of ES-neo cells with NS-Oct4-puro cells. Hybrids from two fusion experiments (2,000,000 cells/flask) were allowed to recover for 3 h after PEG fusion. They were then pooled and divided in 5 plates ([…]) in such a way that the cells were not touching each other. Two hours after the plating, the cells were treated with BIO, as indicated. The fold-change increases in the reprogrammed colonies are shown in the graphs (mean±s.e.m.; n=3).

Series [9] deals with ES-GFP cells with NS-Oct4-puro cells. In words: FACS analysis of the primary fusion products (ES-GFP × NS-Oct4-puro, 3 h after PEG fusion). As for the experimental part:
ES-GFP cells were treated or not with BIO for 12, 24, 48, 72 and 96 h and subsequently PEG fused with NS-Oct4-puro cells. Hybrids were trypsinized, counted, resuspended in PBS (1×10^6 cells per point) and centrifuged. Then, 0.1 ml of 4% paraformaldehyde solution was added to the cells and they were incubated for 15 min. Blocking solution (0.1% Triton, 10% goat-serum, in PBS) was subsequently added and the cells incubated for 1 h. The cells were then labelled with α-nestin (1:100) (ab6142, Abcan) overnight. The day after, the cells were incubated with the secondary antibody conjugated with PE fluorocrome (1:50) (ab7002 Abcam) for 1 h. FACS analyses were performed using a BDBiosciences FACSAria cytometer.
For orientation: Flow cytometry measures light scatter and fluorescence of single cells or particles in a stream.

In series [10] the test system is NS cells. In words: Toxicity of BIO to NS cells (data not shown). The conditions noted are these: BIO concentrations higher than 1 μM.
For series [11], the system named is β-catenin. In words: Western blotting and immunofluorescence of β-catenin in treated ES cells. The protocol:
ES cells were washed twice with phosphate-buffered saline (PBS), fixed with 4% paraformaldehyde and blocked in 5% goat serum for 40 min. […] The cells were then washed and mounted on slides with a few drops of Vectashield with DAPI (Vector Laboratories).
(Immunoblotting shows a protein as a band on a membrane.)

Series [12] concerns Nanog, Oct4, Rex1, Fgf4, c-Myc. In words: Semiquantitative and quantitative RT-PCR of ES-cell genes and β-catenin targets in pretreated ES cells. To be noted: for expression of pluripotent genes Nanog, Oct4, Rex1 and Fgf4: all treatment times; for c-Myc expression: under Wnt3a and BIO treatments. As for the experimental part: For RT-PCR, the total RNA was extracted from ES cells and from embryoid bodies (200 embryoid bodies for each clone and for each differentiation time point) using the RNeasy Kit (Qiagen), and the cDNA was generated using superscript III (Invitrogen). The primers used were: […]
RNA isolation and reverse transcription were carried out as described for semiquantitative RT-PCR. The template for each PCR reaction was the cDNA obtained from 16 ng total RNA in a 25-μl reaction volume. Platinum SYBR green qPCix-UDG (Invitrogen) was used with an ABprism 7000 real-time PCR machine, according to the manufacturer recommendations. The primers used were: […]

The subject of series [13] is EF4 cells and NS-Oct4-(LV-Hygro) cells. Description: PEG fusions between BIO-pretreated EF4 (Nanog over-expressing) cells and NS-Oct4-(LV-Hygro) cells. The conditions noted are these: BIO-pretreated EF4 cells. As for the experimental part: NS-Oct4-(LV-Hygro) cells were derived from NS-Oct4-puro and transduced with the letiviral pHRcPPT-PGK-Hygromycin vector. EF4 cells carrying the CAG promoter driving Nanog and Puromycin resistance genes were a gift of Dr. I. Chambers. Cells were cultured as previously described (Chambers et al., 2003).
NS×ES-Hygro or NS-HygroxEF4 cells PEG fusions were done as previously described. For the NS×ES-Hygro and NS×EF4 selection, Puromycin plus Hygromycin was added after 72 h.

Setting [14] is: cultured in BIO for 12, 24 and 48 h, double-drug selected.
[15] abbreviates: increased treatment time with BIO.
Where [16] appears, read: increasing BIO concentrations, 24 h.

For `O=C1Nc2cc(Br)ccc2/C1=C1/Nc2ccccc2/C1=N\O` [BIO, 6-bromoindirubin-3′-oxime], in [1], the “reprogrammed clones with respect to the control (fold)” value is given as “up to 70 fold” and the “number of reprogrammed clones after prolonged treatment” value is listed as “decreased”. Further, in [1] (hybrids re-plated 3 h after fusion at a dilution without cell contact, BIO for 12, 24, 48 and 72 h), the “time of BIO treatment giving the peak of reprogrammed clones” value was determined as 24 h. In [2] (setting [14]), the “increase in numbers of reprogrammed selected clones vs fusions in the absence of BIO” value is reported as “up to 20 fold”. In addition, in [2] (setting [15]), the “reprogramming efficiency with increased treatment time” value is listed as “lower”. The “increase in numbers of reprogrammed selected clones vs fusions in the absence of BIO” value in [3] (setting [14]) is recorded as not above 9 fold. For the same molecule, the “reprogramming efficiency with increased treatment time” value in series [3] (setting [15]) is recorded as “lower”. Moreover, in [4], the “enhancement of NS reprogramming” value is given as “poor enhancement”, the total reprogrammed clones entry is “about 2,000 total clones” and the “increase in the numbers of reprogrammed clones” value is recorded as not above 80 fold. In addition, the “number of ES-cell-like, AP-positive reprogrammed clones” value in [5] was “only a slight increase”. In [6], the “clonogenicity and viability in absence vs presence of BIO” value is “equal”. For the same molecule, the “activation of the Topflash reporter gene” value in [7] (1 μM BIO) was “relatively limited activation”. In addition, in [7] (increasing BIO concentrations), the “Topflash activation with increasing concentration” value is given as “increased Topflash activation”. Besides, in series [8], the “number of clones after ES×ES fusion (PEG-mediated fusion)” value is recorded as “only a slight increase”. Also, the “number of hybrid clones, ES cells pre-treated or not with BIO before fusion” value in series [9] is “same number of hybrid clones”. Besides, the “toxicity to NS cells” value in series [10] is “slightly toxic”. For the same molecule, the “inhibition of GSK-3 in ES cells” value in [11] (1 μM BIO) is listed as “not fully inhibited”. In series [11] (setting [16]), the “levels of phospho-β-catenin with increasing concentration” value is given as “decreased levels of phospho-β-catenin” and the “β-catenin nuclear localization with increasing concentration” value is reported as “increased β-catenin nuclear localization”. Also, in [12], the “expression of pluripotent genes Nanog, Oct4, Rex1 and Fgf4” value is given as “same levels”; the c-Myc expression entry is listed as “constantly expressed”. In addition, the “reprogramming of NS cells with Nanog over-expression plus Wnt pathway activation” value in series [13] was “cooperate to enhance reprogramming”.

B1: Wnt3a: Wnt protein isoform (R&D), Wnt/β-catenin pathway activator (protein, UniProt P56704 19-352, looked up)
Protein Wnt-3a: SYPIWWSLAVGPQYSSLGSQPILCASIPGLVPKQLRFCRNYVEIMPSVAEGIKIGIQECQHQFRGRRWNCTTVHDSLAIFGPVLDKATRESAFVHAIASAGVAFAVTRSCAEGTAAICGCSSRHQGSPGKGWKWGGCSEDIEFGGMVSREFADARENRPDARSAMNRHNNEAGRQAIASHMHLKCKCHGLSGSCEVKTCWWSQPDFRAIGDFLKDKYDSASEMVVEKHRESRGWVETLRPRYTYFKVPTERDLVYYEASPNFCEPNPETGSFGTRDRTCNVSSHGIDGCDLLCCGRGHNARAERRREKCRCVFHWCCYVSCQECTRVYDVHTCK
Turning to B1, in [1], the “reprogrammed clones with respect to the control (fold)” value is “up to 20 fold” and the “number of reprogrammed clones after prolonged treatment” value was “decreased”. In addition, the “increase in number of AP-positive reprogrammed clones” value in [2] (hybrids cultured with Wnt3a for 48 h) is reported as “up to 5 fold”. In [4], the “enhancement of NS reprogramming” value is “poor enhancement”, the total reprogrammed clones entry is on record as “about 600 total clones” and the “increase in the numbers of reprogrammed clones” value was “Up to 15 fold”. For the same molecule, in series [12], the “expression of pluripotent genes Nanog, Oct4, Rex1 and Fgf4” value is recorded as “same levels”; the c-Myc expression entry is listed as “constantly expressed”.
